Results published in ChEMBL document CHEMBL5576064, “Development of carbonic anhydrase IX-targeting molecular-targeted photodynamic therapy” (Bioorg Med Chem Lett, 2024).
Calls of active or inactive are those of the source. No cut-off for these calls is given here.

What was measured:
[1] = test system: U-87 MG; assay: Photodynamic antitumor activity against human U87 cells assessed as inhibition of cell growth at 1 uM incubated for 60 mins followed by compound washout and addition of ROS scavenger Tiron and light irradiation measured after 72 hrs by MTT assay; assay type: functional, cell-based; details: U-87MG ATCC
[2] = test system: 4T1; assay: Photodynamic antitumor activity against mouse 4T1 cells implanted mouse model assessed as reduction in tumor growth at 5 mg/kg,TOP administration measured after 12 days; assay type: functional, organism-based; details: time 12.0 day
[3] = biological target: Carbonic anhydrase 9 (Homo sapiens) (UniProt Q16790); assay: Inhibition of carbonic anhydrase IX in human U87 cells assessed as downregulation of CAIX expression at 1 uM incubated for 60 mins followed by compound washout and 540 nm light irradiation measured after 15 mins by Hoechst 33342 staining based immunostaining analysis; assay type: cell-based
[4] = Toxicity in mouse implanted with mouse 4T1 cells assessed as change in body weight at 5 mg/kg,TOP administration followed by light irradiation measured after 12 days; assay type: organism-based; details: in vivo, topical_or_ocular, 288 h, time 12 day
[5] = test system: U-87 MG; assay: Photodynamic antitumor activity against human U87 cells assessed as inhibition of cell growth at 1 uM incubated for 60 mins followed by compound washout and addition of ROS scavenger D-mannitol and light irradiation measured after 72 hrs by MTT assay; assay type: functional, cell-based; details: U-87MG ATCC
[6] = biological target: Carbonic anhydrase 9 (Homo sapiens) (UniProt Q16790); assay: Inhibition of carbonic anhydrase IX in human U87 cells assessed as downregulation of CAIX expression at 1 uM incubated for 60 mins by Western blotting analysis; assay type: cell-based
[7] = test system: 4T1; assay: Photodynamic antitumor activity against mouse 4T1 cells implanted mouse model assessed as reduction in tumor growth at 5 mg/kg,TOP administration followed by light irradiation measured after 12 days; assay type: functional, organism-based; details: time 12.0 day
[8] = test system: A549; assay: Photodynamic antitumor activity against human A549 cells assessed as inhibition of cell growth at 0.001 to 30 uM incubated for 60 mins followed by compound washout and light irradiation measured after 72 hrs by MTT assay; assay type: functional, cell-based; details: dose 0.001-30 µM
[9] = test system: U-87 MG; assay: Photodynamic antitumor activity against human U87 cells assessed as inhibition of cell growth at 1 uM incubated for 60 mins followed by compound washout and addition of ROS scavenger NaN3 and light irradiation measured after 72 hrs by MTT assay; assay type: functional, cell-based; details: U-87MG ATCC
[10] = biological target: Carbonic anhydrase 9 (Homo sapiens) (UniProt Q16790); assay: Inhibition of carbonic anhydrase IX in human U87 cells assessed as nuclear localization of CAIX at 1 uM incubated for 60 mins followed by compound washout and 540 nm light irradiation measured after 15 mins by Hoechst 33342 staining based immunostaining analysis; assay type: cell-based
[11] = test system: 4T1; assay: Photodynamic antitumor activity against mouse 4T1 cells implanted mouse model assessed as increase in tumor degeneration at 5 mg/kg,TOP administration followed by light irradiation measured after 12 days; assay type: functional, organism-based; details: time 12.0 day
[12] = test system: 4T1; assay: Photodynamic antitumor activity against mouse 4T1 cells implanted mouse model assessed as increase in tumor necrosis at 5 mg/kg,TOP administration followed by light irradiation measured after 12 days; assay type: functional, organism-based; details: time 12.0 day
[13] = test system: U-87 MG; assay: Photodynamic antitumor activity against human U87 cells assessed as inhibition of cell growth at 1 uM incubated for 60 mins followed by compound washout and addition of ROS scavenger NaP and light irradiation measured after 72 hrs by MTT assay; assay type: functional, cell-based; details: U-87MG ATCC
[14] = biological target: Carbonic anhydrase 9 (Homo sapiens) (UniProt Q16790); assay: Inhibition of carbonic anhydrase IX in human U87 cells assessed as downregulation of CAIX expression at 1 uM incubated for 60 mins followed by compound washout and 540 nm light irradiation measured after 15 mins by Western blotting analysis; assay type: cell-based
[15] = test system: U-87 MG; assay: Photodynamic antitumor activity against human U87 cells assessed as inhibition of cell growth incubated for 60 mins followed by compound washout and light irradiation measured after 72 hrs by MTT assay; assay type: functional, cell-based, U-87MG ATCC; details: light or radiation study
[16] = test system: U-87 MG; assay: Antitumor activity against human U87 cells assessed as inhibition of cell growth at 0.001 to 30 uM incubated for 60 mins by MTT assay; assay type: functional, cell-based; details: U-87MG ATCC, dose 0.001-30 µM
[17] = test system: A549; assay: Photodynamic antitumor activity against human A549 cells assessed as inhibition of cell growth incubated for 60 mins followed by compound washout and light irradiation measured after 72 hrs by MTT assay; assay type: functional, cell-based; details: A549, light or radiation study
[18] = biological target: Carbonic anhydrase 9 (Homo sapiens) (UniProt Q16790); assay: Inhibition of carbonic anhydrase IX in human A549 cells assessed as downregulation of CAIX expression at 1 uM incubated for 60 mins followed by compound washout and 540 nm light irradiation measured after 15 mins by Western blotting analysis; assay type: cell-based
[19] = test system: U-87 MG; assay: Photodynamic antitumor activity against human U87 cells assessed as inhibition of cell growth at 1 uM incubated for 60 mins followed by compound washout and addition of ROS scavenger NaN3 upto 30 uM and light irradiation measured after 72 hrs by MTT assay; assay type: functional, cell-based; details: U-87MG ATCC
[20] = biological target: Carbonic anhydrase 9 (Homo sapiens) (UniProt Q16790); assay: Inhibition of carbonic anhydrase IX in human A549 cells assessed as downregulation of CAIX expression at 1 uM incubated for 60 mins by Western blotting analysis; assay type: cell-based
[21] = Toxicity in mouse implanted with mouse 4T1 cells assessed as change in body weight at 5 mg/kg,TOP administration measured after 12 days; assay type: organism-based; details: in vivo, topical_or_ocular, 288 h, time 12 day
[22] = test system: U-87 MG; assay: Photodynamic antitumor activity against human U87 cells assessed as inhibition of cell growth at 0.001 to 30 uM incubated for 60 mins followed by compound washout and light irradiation measured after 72 hrs by MTT assay; assay type: functional, cell-based; details: U-87MG ATCC, dose 0.001-30 µM
[23] = test system: U-87 MG; assay: Photodynamic antitumor activity against human U87 cells assessed as inhibition of cell growth at 1 uM incubated for 60 mins followed by compound washout and addition of ROS scavenger Trolox and light irradiation measured after 72 hrs by MTT assay; assay type: functional, cell-based; details: U-87MG ATCC
[24] = test system: A549; assay: Antitumor activity against human A549 cells assessed as inhibition of cell growth at 0.001 to 30 uM incubated for 60 mins by MTT assay; assay type: functional, cell-based; details: dose 0.001-30 µM
[25] = test system: U-87 MG; assay: Photodynamic antitumor activity against human U87 cells assessed as increase in ATP release incubated for 1 hr followed by compound washout and 540 nm light irradiation measured upto 10 mins by luciferase assay; assay type: functional, cell-based; details: U-87MG ATCC

inhibition [6] | inhibition [14] | IC50 [15] [nM] | IC50 [17] [nM] | inhibition [18] | inhibition [20] | Structure (SMILES) | Activity [8] | Activity [16] | Activity [22] | Activity [24] | other results
inactive | Active | 50 | 200 | Active | inactive | Cc1c(I)c(C)n2c1C=C1C=C(I)C(CCC(=O)NCCCCCCNC(=O)c3ccc(S(N)(=O)=O)cc3)=[N+]1[B-]2(F)F | Dose-Dependent Effect | inactive | Dose-Dependent Effect | inactive | Activity [1]: Active; Activity [2]: inactive; inhibition [3]: Active; Activity [4]: Non-Toxic; Activity [5]: Active; Activity [7]: Active; Activity [9]: inactive; inhibition [10]: Active; Activity [11]: Active; Activity [12]: Active; Activity [13]: Active; Activity [19]: inactive; Activity [21]: Non-Toxic; Activity [23]: Active; Activity [25]: Active
 |  | 18900 | 21300 |  |  | Cc1cc(C)n2c1C=C1C=CC(CCC(=O)NCCCCCCNC(=O)c3ccc(S(N)(=O)=O)cc3)=[N+]1[B-]2(F)F |  |  |  |  | 
inactive | Active | 300 | 400 | Active | inactive | Cc1c(Br)c(C)n2c1C=C1C=C(Br)C(CCC(=O)NCCCCCCNC(=O)c3ccc(S(N)(=O)=O)cc3)=[N+]1[B-]2(F)F | Dose-Dependent Effect | inactive | Dose-Dependent Effect | inactive | 
